{"source": "paper PMC4492579", "about": "“Potent and Selective Triazole-Based Inhibitors of the Hypoxia-Inducible Factor Prolyl-Hydroxylases with Activity in the Murine Brain” (PLoS ONE, 2015)", "key": {"PHD2": {"molecular_target": "PHD2 (Homo sapiens, UniProt Q9GZT9)", "sequence (Q9GZT9 whole entry)": "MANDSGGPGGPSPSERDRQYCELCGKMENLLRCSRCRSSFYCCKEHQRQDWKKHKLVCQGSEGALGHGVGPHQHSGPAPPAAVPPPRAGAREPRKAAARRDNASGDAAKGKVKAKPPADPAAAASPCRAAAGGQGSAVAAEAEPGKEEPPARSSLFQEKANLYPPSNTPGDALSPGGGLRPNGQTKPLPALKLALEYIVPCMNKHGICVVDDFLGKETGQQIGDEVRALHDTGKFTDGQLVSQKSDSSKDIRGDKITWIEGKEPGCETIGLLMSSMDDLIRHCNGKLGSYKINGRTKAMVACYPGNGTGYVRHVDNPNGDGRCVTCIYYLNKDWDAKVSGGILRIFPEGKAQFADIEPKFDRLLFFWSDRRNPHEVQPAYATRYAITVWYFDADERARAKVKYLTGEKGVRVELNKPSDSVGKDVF", "experiment": "Competition-based NMR reporter ligand displacement assay ([13C]-2OG / [13C]-CODD)", "format": "binding", "details": "50 μM apo-PHD2, 400 μM Zn(II), 400 μM competitor", "procedure": "For 2OG displacement assays, selective ^1H-^13C 1D-HSQC experiments were conducted at 700 MHz using a Bruker Avance III spectrometer equipped with an inverse TCI cryoprobe optimized for ^1H observation. The CLIP-HSQC sequence was used (without ^13C decoupling). Typical experimental parameters were as follows: acquisition time 0.58 s, relaxation delay 2 s, number of transients 256−1600. The 1JCH was set to 160 Hz. For the selective version of the experiment, a 6.8 ms Q3 180 degree pulse was used, and selective irradiation was applied at the appropriate [^13C] chemical shift. Three millimeter MATCH tubes with a 160 μL final sample volume were used. Solutions were buffered using Tris-D11 50 mM (pH 7.5) dissolved in 90% H2O and 10% D2O. Assays were conducted at 298 K in solutions typically containing 50 μM apo-PHD2, 400 μM Zn(II), 50 μM 1,2,3,4-[^13C]-2OG or [^13C]-labeled CODD (uniformly [^13C]-labeled at proline-564) and 400 μM competitor (except unlabeled CODD competitor used at 800 μM). Selective irradiation was applied at 30.5 ppm for [^13C]-2OG and 24.25 ppm for [^13C]-labeled CODD. Percentage displacement was calculated according to equation: (I−I0)/(Iblank−I0) where I 0 is the intensity of the reporter in the presence of protein but without inhibitor, I is the intensity of the reporter in the presence of protein and inhibitor, and I blank is the intensity of the reporter without protein or inhibitor.\nThe results reveal that the previously described inhibitor IOX2 displaces 2OG from PHD2 (S3A Fig), consistent with its predicted binding mode. […] Previous crystallographic studies have shown that the HIF substrate can still bind even when the 2OG active site is occupied by some, but not all, inhibitors."}, "HIF1α and HIF2α": {"system": "HIF1α and HIF2α", "experiment": "HIFα induction in tissues of treated mice (immunoblotting)", "format": "in vivo, C57BL/6 mice", "details": "i.p.", "procedure": "All animal experiments were performed on male C57BL/6 mice aged 3 months (purchased from Harlan Laboratories, Blackthorn) housed in specific pathogen free conditions with free access to water and standard chow. Mice were injected intraperitonially with the inhibitor (dissolved in Hanks’ buffered saline solution, pH 7.0, 5% DMSO final) or vehicle at the indicated doses for the indicated time as previously described. Tissues from treated mice were harvested and ‘snap frozen’ with liquid nitrogen before being stored at -80°C. For immunoblotting, a portion of the tissues was removed, weighed and homogenised in urea/SDS buffer before being analysed by immunoblotting with HIF1α rabbit polyclonal antibody (10006421, Cayman Chemical, 1:1000) or HIF2α rabbit polyclonal antibody (PM9 [27], 1:1000). For RNA extraction, tissues were ‘snap frozen’ in liquid nitrogen immediately after harvesting, then ground to a fine powder using a cryogenic tissue pulveriser, keeping samples on dry ice at all times and processed for total RNA extraction using the mirVana miRNA isolation kit (AM1560, Life Technologies) according to the manufacturer’s protocol for processing frozen tissues. All animal procedures were compliant with the UK Home Office Animals (Scientific Procedures) Act 1986 and Local Ethical Review Procedures (University of Oxford Medical Sciences Division Ethical Review Committee).\nThe inhibitors or vehicle controls were injected intraperitonially into wild type C57BL/6 mice and sacrificed after the indicated treatment time before harvesting their tissues to be analysed for HIFα levels by immunoblotting."}, "FIH": {"molecular_target": "FIH (Homo sapiens, UniProt Q9NWT6)", "sequence (Q9NWT6 whole entry)": "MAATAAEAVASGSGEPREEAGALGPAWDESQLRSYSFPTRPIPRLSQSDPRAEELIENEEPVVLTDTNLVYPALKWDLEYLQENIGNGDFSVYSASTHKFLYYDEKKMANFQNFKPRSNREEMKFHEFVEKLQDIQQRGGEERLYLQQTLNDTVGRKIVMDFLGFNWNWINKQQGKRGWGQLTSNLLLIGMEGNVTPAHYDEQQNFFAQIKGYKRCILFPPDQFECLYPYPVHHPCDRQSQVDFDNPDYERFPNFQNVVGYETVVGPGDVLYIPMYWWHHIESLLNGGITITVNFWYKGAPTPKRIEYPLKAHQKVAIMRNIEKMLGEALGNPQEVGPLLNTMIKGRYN", "experiment": "FIH liquid chromatography-mass spectrometry assay (RapidFire)", "description": "After 15 minutes, the enzyme reaction was stopped by the addition of 4 ml 10% formic acid and the reaction mixture transferred to a RapidFire RF360 high throughput sampling robot. Samples were aspirated under vacuum onto a C4 Solid Phase Extraction (SPE) cartridge. […] Ion chromatogram data was extracted for the non-hydroxylated peptide substrate and the hydroxylated peptide product and peak area data for extracted ion chromatograms were integrated using RapidFire Integrator software. Percentage conversion of substrate to product was calculated in Microsoft Excel and IC50 values were calculated using Graphpad Prism 5."}, "BBOX1": {"molecular_target": "T1, BBOX1 (Homo sapiens, UniProt O75936)", "T1 sequence (O75936 1-387)": "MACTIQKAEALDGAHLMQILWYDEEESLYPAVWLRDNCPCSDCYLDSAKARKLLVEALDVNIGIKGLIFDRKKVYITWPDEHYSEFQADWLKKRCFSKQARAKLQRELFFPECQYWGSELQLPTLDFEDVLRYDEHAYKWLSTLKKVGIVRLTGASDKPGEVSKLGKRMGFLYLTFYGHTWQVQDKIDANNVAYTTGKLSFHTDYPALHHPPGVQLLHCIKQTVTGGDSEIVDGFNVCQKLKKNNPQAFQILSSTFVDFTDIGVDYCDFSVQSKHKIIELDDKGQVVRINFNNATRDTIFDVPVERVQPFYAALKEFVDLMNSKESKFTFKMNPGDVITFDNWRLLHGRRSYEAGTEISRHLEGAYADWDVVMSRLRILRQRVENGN", "parameters": "method as in PMID 22730246", "details": "cited from earlier work"}, "JMJD2A (KDM4A)": {"molecular_target": "T2, JMJD2A (KDM4A) (Homo sapiens, UniProt O75164)", "T2 sequence (O75164 1-1064)": "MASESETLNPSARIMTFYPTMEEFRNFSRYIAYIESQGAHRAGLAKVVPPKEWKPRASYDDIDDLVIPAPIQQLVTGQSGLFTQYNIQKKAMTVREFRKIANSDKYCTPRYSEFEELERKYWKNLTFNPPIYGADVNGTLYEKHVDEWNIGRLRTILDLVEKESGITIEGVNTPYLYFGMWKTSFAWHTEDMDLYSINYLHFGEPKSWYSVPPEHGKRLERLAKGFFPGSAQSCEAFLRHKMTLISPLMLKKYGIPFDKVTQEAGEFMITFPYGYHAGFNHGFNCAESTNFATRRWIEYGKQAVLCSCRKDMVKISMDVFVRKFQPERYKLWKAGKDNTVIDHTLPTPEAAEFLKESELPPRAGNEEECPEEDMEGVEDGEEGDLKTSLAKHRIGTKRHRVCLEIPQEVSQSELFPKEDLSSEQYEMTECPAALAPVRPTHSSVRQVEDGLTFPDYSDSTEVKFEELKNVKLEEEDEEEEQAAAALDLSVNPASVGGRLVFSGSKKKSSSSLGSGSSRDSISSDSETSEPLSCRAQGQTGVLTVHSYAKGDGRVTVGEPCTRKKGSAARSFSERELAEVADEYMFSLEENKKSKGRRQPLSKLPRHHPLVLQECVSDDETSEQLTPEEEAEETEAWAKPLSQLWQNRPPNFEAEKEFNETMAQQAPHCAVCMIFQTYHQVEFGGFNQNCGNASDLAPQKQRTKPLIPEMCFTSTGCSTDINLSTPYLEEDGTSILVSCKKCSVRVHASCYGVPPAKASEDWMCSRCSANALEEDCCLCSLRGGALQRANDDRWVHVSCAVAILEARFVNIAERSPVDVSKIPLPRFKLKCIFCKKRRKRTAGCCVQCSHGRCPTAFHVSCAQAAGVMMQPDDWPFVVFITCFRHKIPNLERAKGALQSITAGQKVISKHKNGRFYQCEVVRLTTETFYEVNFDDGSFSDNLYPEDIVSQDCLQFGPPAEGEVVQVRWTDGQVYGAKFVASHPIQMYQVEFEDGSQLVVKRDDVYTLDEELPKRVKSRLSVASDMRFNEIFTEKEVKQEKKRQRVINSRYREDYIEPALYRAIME", "parameters": "method as in PMID 26682036", "details": "cited from earlier work"}, "JMJD2C (KDM4C)": {"molecular_target": "T3, JMJD2C (KDM4C) (Homo sapiens, UniProt Q9H3R0)", "T3 sequence (Q9H3R0 1-1056)": "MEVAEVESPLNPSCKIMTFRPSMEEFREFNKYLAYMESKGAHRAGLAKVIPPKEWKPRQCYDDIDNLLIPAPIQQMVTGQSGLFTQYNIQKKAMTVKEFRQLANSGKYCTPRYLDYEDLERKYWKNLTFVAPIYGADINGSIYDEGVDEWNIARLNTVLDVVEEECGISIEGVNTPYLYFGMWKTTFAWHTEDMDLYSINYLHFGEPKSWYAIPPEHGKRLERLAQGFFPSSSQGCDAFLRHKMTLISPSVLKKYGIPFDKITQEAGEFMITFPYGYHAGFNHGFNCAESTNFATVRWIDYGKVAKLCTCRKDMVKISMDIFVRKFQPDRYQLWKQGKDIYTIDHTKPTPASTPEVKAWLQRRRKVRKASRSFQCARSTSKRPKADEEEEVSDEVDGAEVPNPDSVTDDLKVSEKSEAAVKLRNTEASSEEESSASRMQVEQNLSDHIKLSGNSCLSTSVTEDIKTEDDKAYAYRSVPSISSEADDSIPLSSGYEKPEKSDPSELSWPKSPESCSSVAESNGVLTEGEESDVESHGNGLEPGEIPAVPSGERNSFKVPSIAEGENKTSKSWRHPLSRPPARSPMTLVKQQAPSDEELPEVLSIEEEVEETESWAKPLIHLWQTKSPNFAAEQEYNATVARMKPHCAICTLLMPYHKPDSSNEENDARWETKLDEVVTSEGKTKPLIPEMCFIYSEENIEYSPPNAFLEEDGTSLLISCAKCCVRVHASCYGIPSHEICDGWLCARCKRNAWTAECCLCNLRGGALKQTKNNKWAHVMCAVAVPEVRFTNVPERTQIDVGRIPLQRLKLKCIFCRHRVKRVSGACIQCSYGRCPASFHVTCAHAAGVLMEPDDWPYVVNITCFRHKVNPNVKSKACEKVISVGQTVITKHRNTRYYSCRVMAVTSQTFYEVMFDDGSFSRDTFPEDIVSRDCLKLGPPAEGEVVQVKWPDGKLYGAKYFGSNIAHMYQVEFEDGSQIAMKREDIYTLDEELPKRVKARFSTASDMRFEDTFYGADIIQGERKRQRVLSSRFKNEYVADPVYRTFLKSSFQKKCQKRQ", "parameters": "method as in PMID 26682036", "details": "cited from earlier work"}, "[1]": {"details": "1 h, equimolar: IOX2 37.7 mg/kg, IOX4 35 mg/kg, DMOG 75 mg/kg"}}, "note": "pIC50: −log10 of the molar value. Structures can show the parent of a compound that is named as a salt.", "data": [{"smiles": "O=C(O)c1ccc(-n2[nH]cc(-n3ccnn3)c2=O)nc1", "note": "(as salt: hydrochloride) [compound 1, 6-(5-oxo-4-(1H-1,2,3-triazol-1-yl)-2,5-dihydro-1H-pyrazol-1-yl)pyridine-3-carbocylic acid hydrochloride]", "values": [{"measurement": "melting point", "result": "≥ 316.6 °C (dec.)"}]}, {"smiles": "O=C(O)Cc1cs/c(=N/C(=O)CS(=O)(=O)Cc2ccc3ccccc3c2)n1O", "note": "[BNS, bicyclic naphthalenylsulfone hydroxythiazole]", "values": [{"measurement": "displacement of [13C]-2OG from PHD2", "setting": "PHD2", "result": "displace both 2OG and CODD"}, {"measurement": "displacement of [13C]-CODD from PHD2", "setting": "PHD2", "result": "displace both 2OG and CODD"}]}, {"smiles": "COC(=O)CNC(=O)C(=O)OC", "note": "[DMOG, dimethyloxalylglycine]", "values": [{"measurement": "HIF1α and HIF2α induction in liver, kidney and heart", "setting": "HIF1α and HIF2α; [1]", "result": "induction of HIF1α and HIF2α"}, {"measurement": "HIF1α and HIF2α induction in the brain", "setting": "HIF1α and HIF2α; [1]", "result": "not"}]}, {"smiles": "O=C(O)CNC(=O)c1nc(Cl)c2ccccc2c1O", "note": "[IOX3]", "values": [{"measurement": "HIF1α induction in mouse liver", "setting": "HIF1α and HIF2α; IOX2 37.7 mg/kg, IOX3 30 mg/kg (equivalent molar dose), 1 h and […]", "result": "lower and shorter induction of HIF1α"}]}, {"smiles": "O=C(O)CNC(=O)C(=O)O", "note": "[NOG, N-oxalylglycine]", "values": [{"measurement": "pIC50", "setting": "FIH", "result": 5.64}, {"measurement": "pIC50", "setting": "BBOX1", "result": 6.41}, {"measurement": "pIC50", "setting": "JMJD2A (KDM4A)", "result": 6.70}, {"measurement": "pIC50", "setting": "JMJD2C (KDM4C)", "result": 6.22}]}]}
